# Test results as given in ChEMBL document CHEMBL4823243, “Synergistic induction of apoptosis in resistant head and neck carcinoma and leukemia by alkoxyamide-based histone deacetylase inhibitors” (Eur J Med Chem, 2021).
# Calls of active or inactive are those of the source. The calls are words filed in the database; no cut-off is given here.
# How the values were obtained:
# [1] = biological target: T1, Histone deacetylase (Homo sapiens) (UniProt Q13547+O15379+Q9UBN7+Q92769+Q9UQL6+Q8WUI4+Q9BY41+Q96DB2+P56524+Q9UKV0+Q969S8); assay: Inhibition of HDAC in human CAL-27 cells assessed as combination index at 0.25 uM measured in presence of 10 uM cDDP by MTT-based Chou-Talalay method; format: cell-based
# [2] = biological target: T1, Histone deacetylase (Homo sapiens); assay: Inhibition of HDAC in human Cal27CisR cells assessed as combination index at 0.6 uM measured in presence of 50 uM cDDP by MTT-based Chou-Talalay method; format: cell-based
# [3] = biological target: T1, Histone deacetylase (Homo sapiens); assay: Inhibition of HDAC in human Cal27CisR cells assessed as combination index at 0.4 uM measured in presence of 20 uM cDDP by MTT-based Chou-Talalay method; format: cell-based
# [4] = biological target: T1, Histone deacetylase (Homo sapiens); assay: Inhibition of HDAC in human CAL-27 cells assessed as potentiation of cisplatin-induced cytotoxicity by measuring fold reduction in cisplatin IC50 at 0.3 to 0.5 uM pretreated for 48 hrs followed by cisplatin addition and measured after 72 hrs by MTT assay relative to cisplatin alone; format: cell-based; details: dose 0.3-0.5 µM, time 120.0 hrs
# [5] = biological target: T1, Histone deacetylase (Homo sapiens); assay: Inhibition of HDAC in human CAL-27 cells assessed as combination index at 0.4 uM measured in presence of 2 uM cDDP by MTT-based Chou-Talalay method; format: cell-based
# [6] = system: HL-60; assay: Induction of apoptosis in human HL-60 cells assessed as caspase 3/7 activation at IC75 concentration incubated at 48 hrs; format: functional
# [7] = system: CAL-27; assay: Induction of apoptosis in cisplatin resistant human CAL-27 cells assessed as caspase 3 activation at 0.3 uM pretreated for 24 hrs followed by cisplatin treatment and further incubated for 18 hrs by Caspase3/7 detection reagent based assay; format: functional, cell-based; details: time 42.0 hrs
# [8] = biological target: T1, Histone deacetylase (Homo sapiens); assay: Inhibition of HDAC in human CAL-27 cells assessed as combination index at 0.2 uM measured in presence of 10 uM cDDP by MTT-based Chou-Talalay method; format: cell-based
# [9] = biological target: T1, Histone deacetylase (Homo sapiens); assay: Inhibition of HDAC in human Cal27CisR cells assessed as combination index at 0.6 uM measured in presence of 20 uM cDDP by MTT-based Chou-Talalay method; format: cell-based
# [10] = biological target: T1, Histone deacetylase (Homo sapiens); assay: Inhibition of HDAC in human Cal27CisR cells assessed as combination index at 0.1 uM measured in presence of 10 uM cDDP by MTT-based Chou-Talalay method; format: cell-based
# [11] = biological target: T1, Histone deacetylase (Homo sapiens); assay: Inhibition of HDAC in human CAL-27 cells assessed as combination index at 0.3 uM measured in presence of 2 uM cDDP by MTT-based Chou-Talalay method; format: cell-based
# [12] = biological target: T1, Histone deacetylase (Homo sapiens); assay: Inhibition of HDAC in human CAL-27 cells assessed as combination index at 0.1 uM measured in presence of 5 uM cDDP by MTT-based Chou-Talalay method; format: cell-based
# [13] = biological target: T1, Histone deacetylase (Homo sapiens); assay: Inhibition of HDAC in human CAL-27 cells assessed as combination index at 0.2 uM measured in presence of 2 uM cDDP by MTT-based Chou-Talalay method; format: cell-based
# [14] = biological target: T1, Histone deacetylase (Homo sapiens); assay: Inhibition of HDAC in human Cal27CisR cells assessed as combination index at 3 uM measured in presence of 50 uM cDDP by MTT-based Chou-Talalay method; format: cell-based
# [15] = biological target: Histone deacetylase; assay: Inhibition of HDAC in human Cal27CisR cells assessed as potentiation of cisplatin-induced cytotoxicity by measuring cisplatin IC50 at 2 to 3 uM pretreated for 48 hrs followed by cisplatin addition and measured after 72 hrs by MTT assay (reference value: 3.57 uM); format: cell-based
# [16] = biological target: T1, Histone deacetylase (Homo sapiens); assay: Inhibition of HDAC in human CAL-27 cells assessed as combination index at 1.25 uM measured in presence of 10 uM cDDP by MTT-based Chou-Talalay method; format: cell-based
# [17] = biological target: T1, Histone deacetylase (Homo sapiens); assay: Inhibition of HDAC in human CAL-27 cells assessed as combination index at 1.5 uM measured in presence of 10 uM cDDP by MTT-based Chou-Talalay method; format: cell-based
# [18] = biological target: T1, Histone deacetylase (Homo sapiens); assay: Inhibition of HDAC in human CAL-27 cells assessed as combination index at 2 uM measured in presence of 10 uM cDDP by MTT-based Chou-Talalay method; format: cell-based
# [19] = biological target: T1, Histone deacetylase (Homo sapiens); assay: Inhibition of HDAC in human Cal27CisR cells assessed as combination index at 3 uM measured in presence of 10 uM cDDP by MTT-based Chou-Talalay method; format: cell-based
# [20] = biological target: T1, Histone deacetylase (Homo sapiens); assay: Inhibition of HDAC in human Cal27CisR cells assessed as combination index at 2 uM measured in presence of 50 uM cDDP by MTT-based Chou-Talalay method; format: cell-based
# [21] = biological target: T1, Histone deacetylase (Homo sapiens); assay: Inhibition of HDAC in human CAL-27 cells assessed as combination index at 0.75 uM measured in presence of 10 uM cDDP by MTT-based Chou-Talalay method; format: cell-based
# [22] = biological target: T1, Histone deacetylase (Homo sapiens); assay: Inhibition of HDAC in human CAL-27 cells assessed as combination index at 0.5 uM measured in presence of 10 uM cDDP by MTT-based Chou-Talalay method; format: cell-based
# [23] = biological target: T1, Histone deacetylase (Homo sapiens); assay: Inhibition of HDAC in human Cal27CisR cells assessed as potentiation of cisplatin-induced cytotoxicity by measuring fold reduction in cisplatin IC50 at 2 to 3 uM pretreated for 48 hrs followed by cisplatin addition and measured after 72 hrs by MTT assay relative to cisplatin alone; format: cell-based; details: dose 2-3 µM, time 120.0 hrs
# [24] = biological target: T1, Histone deacetylase (Homo sapiens); assay: Inhibition of HDAC in human CAL-27 cells assessed as potentiation of cisplatin-induced cytotoxicity by measuring fold reduction in cisplatin IC50 at 2 to 3 uM pretreated for 48 hrs followed by cisplatin addition and measured after 72 hrs by MTT assay relative to cisplatin alone; format: cell-based; details: dose 2-3 µM, time 120.0 hrs
# [25] = system: CAL-27; assay: Induction of apoptosis in human CAL-27 cells assessed as caspase 3 activation at 2 uM in presence of pretreated for 24 hrs followed by cisplatin treatment and further incubated for 18 hrs by Caspase3/7 detection reagent based assay; format: functional, cell-based; details: time 42.0 hrs
# [26] = biological target: T1, Histone deacetylase (Homo sapiens); assay: Inhibition of HDAC in human Cal27CisR cells assessed as combination index at 0.75 uM measured in presence of 50 uM cDDP by MTT-based Chou-Talalay method; format: cell-based
# [27] = biological target: T1, Histone deacetylase (Homo sapiens); assay: Inhibition of HDAC in human Cal27CisR cells assessed as combination index at 2 uM measured in presence of 10 uM cDDP by MTT-based Chou-Talalay method; format: cell-based
# [28] = biological target: Histone deacetylase; assay: Inhibition of HDAC in human CAL-27 cells assessed as potentiation of cisplatin-induced cytotoxicity by measuring cisplatin IC50 at 2 to 3 uM pretreated for 48 hrs followed by cisplatin addition and measured after 72 hrs by MTT assay (reference value: 3.57 uM); format: cell-based
# [29] = system: CAL-27; assay: Induction of apoptosis in cisplatin resistant human CAL-27 cells assessed as caspase 3 activation at 2 uM pretreated for 24 hrs followed by cisplatin treatment and further incubated for 18 hrs by Caspase3/7 detection reagent based assay; format: functional, cell-based; details: time 42.0 hrs
# [30] = biological target: T1, Histone deacetylase (Homo sapiens); assay: Inhibition of HDAC in human CAL-27 cells assessed as combination index at 1 uM measured in presence of 10 uM cDDP by MTT-based Chou-Talalay method; format: cell-based
Compound,CI [1],CI [2],CI [3],Ratio IC50 [4],CI [5],Activity [7],CI [8],CI [9],CI [10],CI [11],other results
O=C(CCCCCONC(=O)c1ccc2ccccc2n1)NO,0.03,0.38,0.26,3.2,0.48,Active,0.04,0.45,2.62,0.88,IC75 [6]: 0.321 µM
O=C(CCCCCONC(=O)c1cc2ccccc2[nH]1)NO,0.03,0.41,0.14,2.73,0.14,Active,0.04,0.24,4.3,0.35,CI [12]: 0.53; CI [13]: 0.63
O=C(CCCCCONC(=O)c1nccc2ccccc12)NO,–,–,–,–,–,–,–,–,–,–,CI [14]: 0.39; IC50 [15]: 4.84 µM; CI [16]: 0.3; CI [17]: 0.21; CI [18]: 0.14; CI [19]: 0.24; CI [20]: 0.42; CI [21]: 0.51; CI [22]: 0.58; Ratio IC50 [23]: 10; Ratio IC50 [24]: 3.25; Activity [25]: Active; CI [26]: 0.56; CI [27]: 0.58; IC50 [28]: 1.1 µM; Activity [29]: Active; CI [30]: 0.34
